Measured values from patent publication US11946094B2, “Combination therapies and methods of use thereof” (Augusta University Research Institute, Inc., priority 2017, dated 2024).

Experiments:
AB1-HA tumor model = conditions: CTX treatment at Day 9; cited from earlier work
OVCAR-8 cells [1] = assay: Drug titration (GI50) with S100A11 siRNA knockdown versus sham control; type: cell-based; conditions: serial dilution of drug, three replicates
Method: Statistical analyses were performed using the R language and environment for statistical computing (R version 3.3.1; R Foundation for Statistical Computing) and Microsoft Excel. Student's T-test (two-tailed, unpaired) was used to calculate p-values for confirmation of drug effect. GI50 values were calculated using a four-parameter logistic function to obtain a classical “s” curve for drug titrations using SigmaPlot (Systat Software, San Jose, CA). Heatmaps were created using the R package “pheatmap”. Clustering was done with WPGMA hierarchical clustering. QIAGEN's Ingenuity Pathway Analysis (IPA®, QIAGEN Redwood City) was utilized for assessment of network and pathway contributions of top genes identified using the NCI-60 correlations.
An important measure of synergism is the dosage reduction of a therapeutic compound by another agent. Titration screening with several compounds was performed to compare growth curves with and without knockdown of S100A11 or KLHL5. […] KLHL5 also was synergistic with other cell cycle inhibitors and PI3K-AKT-mTOR inhibitors. Titration curves and calculation of GI50 were performed for twenty-four compounds.

OVCAR-8 cells [2] = assay: Drug-siRNA combination screen: 346-compound anticancer library at 100 nM, CCK-8 viability; conditions: OVCAR-8; drug 100 nM plus siRNA knockdown of each of 18 genes; distance VAB−VA×VB in SD; single gene contributes at most +5 / −5; negative = synergy, positive = antagonism
Method: Comparisons of drug effect were performed using data generated on the same day. A minimum of two replicates was performed with drug library screening and a minimum of three replicates was done for all other tests.
Combinatorial effects were classified using two measures of combinatorial action: 1) the coefficient of drug interaction (CDI), defined as (VAB/(VA×VB)) and 2) the distance in standard deviation (SD) of VAB−(VA×VB). […] In confirmation studies significance was determined using a Student's T-test (two-tailed, unpaired) with p<0.05 indicating significance.
To measure the effect of a gene on drug effect, comparisons were made between high expressers of each gene and the wild type cells exposed to sham reagents.
In theory, CDI<1 is indicative of synergy while CDI>1 is indicative of antagonism or additive effect in a multiplicative model.

| Compound | cure rate (AB1-HA tumor model) [%] | dose reduction of GI50 value by S100A11 siRNA versus sham control (OVCAR-8 cells [1]) [fold] | Score (sum of observed SD values for 18 genes) (OVCAR-8 cells [2]) [SD] |
| --- | --- | --- | --- |
| O=P1(N(CCCl)CCCl)NCCCO1 (stereo not drawn) [Cyclophosphamide] | 75 |  |  |
| Cn1cc(CNCC2CCN(c3ncc(C(=O)NO)cn3)CC2)c2ccccc21 [JNJ-26481585, Quisinostat] |  | 5.53 | −2.31 |
